Experimental data: US9499495B2, “Quinazolines and azaquinazolines as dual inhibitors of RAS/RAF/MEK/ERK and PI3K/AKT/PTEN/mTOR pathways” (Asana Biosciences, LLC, priority 2013, dated 2016)

What was measured:
[1] = target: T1, PI3Kα (Homo sapiens, UniProt P42336); assay: PI3 Kinase alpha TR-FRET assay; type: biochemical
T1 construct: made in house; host or cells: SF9 cells
Protocol: Compound inhibition for PI3Kα was determined in a homogeneous TR-FRET assay using a PI3Kα assay kit (Millipore, US, Catalog #33-016). The PI3 kinase catalyzes phosphorylation of […] (PIP2) to phosphatidylinositol 3,4,5-trisphosphate (PIP3) in the presence of ATP and Mg^2+. The PIP3 product is detected by displacement of biotin-PIP3 from an energy transfer complex consisting of Europium labeled anti-GST monoclonal antibody, a GST-tagged pleckstrin homology (PH) domain, biotinylated PIP3 and Streptavidin-Allophycocyanin (APC). Excitation of Europium in the complex results in an energy transfer to the APC and a fluorescence emission at 665 nm.
Compounds tested were dissolved in DMSO and directly distributed into 384-well plates at a volume of 0.5 μL. P110/P85a/PIP2 mixture (14.5 μL) was added to compound wells and incubated for 30 min at rt […]. P110/P85a was expressed in SF9 cells and purified in-house. 5 ng P110/P85a was used in the assay. The kinase reaction was started by the addition of ATP. The assay concentrations of both PIP2 and ATP were 40 μM. The reaction mixture was incubated for 30 min and was terminated by the addition of stop mix and detection mix. Fluorescence was measured at 615 and 665 nm upon excitation at 340 nm in a Victor V5 fluorometer (Perkin Elmer, US). The fluorescence emission ratio at 665 to 615 nm, proportional to the kinase activity, was plotted against the compound concentration to generate dose-response curves and IC50 values were determined.

[2] = target: T2, B-RAFV600E (Homo sapiens, UniProt P15056, V600E); assay: B-RAFV600E radiometric assay; type: biochemical; conditions: read-out: Kinase assay B-Raf
T2 construct: purchased Millipore, USA 14-557
Procedure, shortened: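 B-RAFV600E was preincubated 45 min at rt with compound in 1% DMSO. MEK-K97M (0.5 μg), 5 μM final cold ATP and [γ-32P]ATP were then added for 2 h at rt. Phosphorylated MEK was captured on P81 paper and scintillation-counted; IC50 came from a sigmoidal dose-response fit.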

[3] = test system: pERK in A375 cells; assay: In Cell Western (ICW) assay, pERK in A375 cells; type: cell-based; conditions: Homo sapiens, A-375, 3 h treatment
Procedure, shortened: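 RKO or A375 cells were exposed to compounds for 3 h at 37 °C, then fixed and stained in-cell with antibodies to pERK1/2 (T202/Y204), pS6RP or pAKT T308, followed by a Eu-labelled secondary. Time-resolved fluorescence (340/615 nm) was normalized to Hoechst, and IC50 values were fitted sigmoidally against DMSO as 0% inhibition.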

[4] = test system: A375 cells; assay: XTT assay for cell viability, A375 cells; type: cell-based; conditions: Homo sapiens, A-375, 72 h
Procedure, shortened: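 RKO and A375 cells seeded at 1000-2000/well overnight, then exposed to compound for 72 h at 37° C., 5% CO2. XTT (1 mg/ml)/PMS (25 μM) added for 2-3 h; absorbance at 450 nm. Growth relative to DMSO control (100%); GI50 from sigmoidal dose-response fit.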

[5] = test system: RKO cells; assay: XTT assay for cell viability, RKO cells; type: cell-based; conditions: Homo sapiens, 72 h
Protocol: Cell lines (A375 ATCC No. CRL-1619, A2058 ATCC No. CRL-11147 and RKO ATCC No. CRL-2577, American Type Culture Collection (ATCC), Manassas Va.) once attaining ˜80% confluency were trypsinized, centrifuged and resuspended in fresh media. Cells (1000-2000/per well) were seeded in 96-well plate and incubated over-night at 37° C. in a 5% CO2 incubator. Compound dilutions were prepared in 100% DMSO followed by dilutions in the respective media. The cells were treated with NCEs for 72 h at 37° C. in 5% CO2 incubator. After 72 h, freshly prepared XTT (1 mg/ml)/PMS (25 μM) solution was added, incubated for 2 to 3 h at 37° C. and the absorbance was measured at 450 nm using an ELISA plate reader. Keeping DMSO control as 100%, the effect of the compound to inhibit the cell proliferation was calculated and the GI50 values were determined using sigmoidal dose response curve fit in GraphPad Prism® v5 software.

[6] = target: T3, mTOR kinase (Homo sapiens, UniProt P42345); assay: mTOR kinase TR-FRET assay; type: biochemical
T3 construct: purchased Millipore, US
Procedure, shortened: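 TR-FRET with ULight-p70 S6K (Thr 389) peptide (50 nM) and 20 μM ATP in 50 mM HEPES pH 7.5, 1 mM EGTA, 3 mM MnCl2; compound pre-incubated with enzyme before substrate addition, reaction at rt, EDTA-stopped. Eu anti-phospho antibody read 665/615 nm; IC50 from sigmoidal dose-response fit.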

T1 sequence (P42336 whole entry, species assumed): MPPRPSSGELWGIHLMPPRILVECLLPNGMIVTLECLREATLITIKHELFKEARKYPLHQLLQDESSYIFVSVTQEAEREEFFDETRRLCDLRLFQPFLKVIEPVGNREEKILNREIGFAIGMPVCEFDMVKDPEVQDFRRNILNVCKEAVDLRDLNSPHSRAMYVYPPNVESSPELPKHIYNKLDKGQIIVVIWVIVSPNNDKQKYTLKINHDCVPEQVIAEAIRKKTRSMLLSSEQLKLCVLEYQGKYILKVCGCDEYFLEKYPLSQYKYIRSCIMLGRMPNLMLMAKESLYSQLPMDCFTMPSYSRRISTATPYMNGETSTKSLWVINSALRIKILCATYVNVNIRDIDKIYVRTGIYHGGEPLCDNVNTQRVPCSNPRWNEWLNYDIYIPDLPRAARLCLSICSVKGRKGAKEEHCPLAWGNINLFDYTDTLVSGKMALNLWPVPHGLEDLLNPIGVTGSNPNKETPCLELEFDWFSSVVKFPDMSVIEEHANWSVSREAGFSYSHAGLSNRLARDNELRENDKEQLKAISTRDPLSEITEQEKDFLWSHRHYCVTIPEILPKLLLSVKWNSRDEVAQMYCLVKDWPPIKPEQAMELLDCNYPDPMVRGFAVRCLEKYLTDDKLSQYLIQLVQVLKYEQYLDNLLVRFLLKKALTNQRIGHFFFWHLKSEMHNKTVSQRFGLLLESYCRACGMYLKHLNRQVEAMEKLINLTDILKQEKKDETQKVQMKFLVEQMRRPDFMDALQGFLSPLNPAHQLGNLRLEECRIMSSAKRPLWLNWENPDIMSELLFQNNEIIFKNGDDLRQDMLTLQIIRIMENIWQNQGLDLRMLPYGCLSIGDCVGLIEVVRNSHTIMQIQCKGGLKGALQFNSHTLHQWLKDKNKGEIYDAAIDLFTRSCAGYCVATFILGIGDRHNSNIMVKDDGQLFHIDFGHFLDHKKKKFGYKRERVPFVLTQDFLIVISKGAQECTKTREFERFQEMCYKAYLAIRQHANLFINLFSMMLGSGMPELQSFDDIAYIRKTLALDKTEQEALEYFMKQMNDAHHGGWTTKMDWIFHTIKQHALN
T1 sequence (P27986 whole entry partner, species assumed): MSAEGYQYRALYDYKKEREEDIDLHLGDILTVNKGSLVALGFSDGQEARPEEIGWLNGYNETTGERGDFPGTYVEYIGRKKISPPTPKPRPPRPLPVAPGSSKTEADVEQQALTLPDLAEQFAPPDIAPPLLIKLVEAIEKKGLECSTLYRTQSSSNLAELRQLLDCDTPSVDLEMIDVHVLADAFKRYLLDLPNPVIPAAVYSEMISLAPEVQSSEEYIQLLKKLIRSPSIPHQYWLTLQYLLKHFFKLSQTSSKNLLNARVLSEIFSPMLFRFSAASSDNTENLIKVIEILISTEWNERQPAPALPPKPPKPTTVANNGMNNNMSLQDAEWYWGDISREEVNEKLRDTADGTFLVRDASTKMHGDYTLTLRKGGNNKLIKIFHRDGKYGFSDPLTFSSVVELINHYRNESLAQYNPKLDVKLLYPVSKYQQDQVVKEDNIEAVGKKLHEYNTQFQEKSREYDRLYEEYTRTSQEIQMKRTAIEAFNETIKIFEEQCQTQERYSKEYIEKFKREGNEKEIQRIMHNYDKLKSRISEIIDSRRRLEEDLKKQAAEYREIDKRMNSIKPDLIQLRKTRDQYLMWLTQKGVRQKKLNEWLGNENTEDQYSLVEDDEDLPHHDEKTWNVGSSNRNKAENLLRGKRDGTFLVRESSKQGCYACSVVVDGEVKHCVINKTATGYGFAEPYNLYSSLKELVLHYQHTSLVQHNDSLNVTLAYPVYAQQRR
T2 sequence (P15056 416-766 V600E limits assumed): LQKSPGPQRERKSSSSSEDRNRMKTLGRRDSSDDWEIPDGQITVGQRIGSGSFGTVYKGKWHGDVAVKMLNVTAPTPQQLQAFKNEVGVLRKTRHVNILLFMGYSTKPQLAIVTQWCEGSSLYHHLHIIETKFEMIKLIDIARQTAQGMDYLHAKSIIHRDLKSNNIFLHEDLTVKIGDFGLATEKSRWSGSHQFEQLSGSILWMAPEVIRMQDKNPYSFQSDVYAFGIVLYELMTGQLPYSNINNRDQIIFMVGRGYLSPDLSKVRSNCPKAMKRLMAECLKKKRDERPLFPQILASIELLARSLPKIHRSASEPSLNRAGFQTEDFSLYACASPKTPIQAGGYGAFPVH
T3 sequence (P42345 1362-2549 limits assumed): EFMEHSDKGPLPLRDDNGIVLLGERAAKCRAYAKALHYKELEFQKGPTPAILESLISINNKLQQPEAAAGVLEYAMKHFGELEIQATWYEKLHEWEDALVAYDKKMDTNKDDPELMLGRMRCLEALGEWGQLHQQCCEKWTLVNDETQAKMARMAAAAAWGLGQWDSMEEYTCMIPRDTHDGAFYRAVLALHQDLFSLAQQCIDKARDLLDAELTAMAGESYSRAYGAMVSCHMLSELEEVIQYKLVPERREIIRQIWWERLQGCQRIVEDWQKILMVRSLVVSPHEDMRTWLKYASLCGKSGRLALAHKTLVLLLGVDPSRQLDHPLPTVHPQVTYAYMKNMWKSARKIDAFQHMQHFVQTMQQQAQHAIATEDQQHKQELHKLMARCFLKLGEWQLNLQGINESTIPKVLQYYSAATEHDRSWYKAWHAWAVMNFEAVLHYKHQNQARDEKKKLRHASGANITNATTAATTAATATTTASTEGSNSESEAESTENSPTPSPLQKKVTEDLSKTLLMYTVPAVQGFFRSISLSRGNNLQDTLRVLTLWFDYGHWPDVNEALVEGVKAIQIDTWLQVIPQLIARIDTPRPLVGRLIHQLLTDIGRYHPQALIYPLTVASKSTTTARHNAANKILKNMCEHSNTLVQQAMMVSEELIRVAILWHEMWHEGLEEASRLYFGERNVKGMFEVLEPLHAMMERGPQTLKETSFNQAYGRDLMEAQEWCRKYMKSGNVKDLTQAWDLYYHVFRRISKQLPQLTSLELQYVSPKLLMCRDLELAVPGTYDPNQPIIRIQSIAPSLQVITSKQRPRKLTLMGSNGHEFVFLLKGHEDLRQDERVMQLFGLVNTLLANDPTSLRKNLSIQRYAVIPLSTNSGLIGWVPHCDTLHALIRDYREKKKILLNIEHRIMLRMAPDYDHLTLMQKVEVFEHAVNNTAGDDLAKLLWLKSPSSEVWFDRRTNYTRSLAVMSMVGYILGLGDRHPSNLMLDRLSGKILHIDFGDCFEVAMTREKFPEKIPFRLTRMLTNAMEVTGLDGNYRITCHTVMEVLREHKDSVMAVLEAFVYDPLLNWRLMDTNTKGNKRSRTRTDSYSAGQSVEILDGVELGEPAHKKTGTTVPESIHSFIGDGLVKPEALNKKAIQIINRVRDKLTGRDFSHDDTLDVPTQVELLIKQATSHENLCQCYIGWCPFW

IC50 [1] [µM]	IC50 [2] [µM]	IC50 [3] [µM]	IC50 [4] [µM]	IC50 [6] [µM]	SMILES	IC50 [5] [µM]
0.1 to 1	0.001 to 0.1	0.1 to 1	0.1 to 1		CCCS(=O)(=O)Nc1cccc(-c2cc(OC)c3nc(-c4cccc5[nH]ncc45)nc(N4CCOCC4)c3c2)c1F [Example 2, N-(3-(2-(1H-indazol-4-yl)-8-methoxy-4-morpholinoquinazolin-6-yl)-2-fluorophenyl) propane-1-sulfonamide]	
0.1 to 1	0.001 to 0.1	0.001 to 0.1	1 to 10		CCCS(=O)(=O)Nc1cccc(-c2cc(OC)c3nc(-c4ccc(NCCN)nc4)nc(N4CCOCC4)c3c2)c1F [Example 3]	
0.1 to 1	0.1 to 1	0.1 to 1	0.1 to 1		CCCS(=O)(=O)Nc1cccc(-c2cc(C)c3nc(-c4ccc(N)nc4)nc(N4CCOCC4)c3c2)c1F [Example 8, N-(3-(2-(6-aminopyridin-3-yl)-8-methyl-4-morpholinoquinazolin-6-yl)-2-fluorophenyl)propane-1-sulfonamide]	0.1 to 1
0.1 to 1	0.1 to 1	0.1 to 1	0.1 to 1		CCCS(=O)(=O)Nc1cccc(-c2cc(OC)c3nc(-c4cnc(N)c(C)c4)nc(N4CCOCC4)c3c2)c1F [Example 26, N-(3-(2-(6-amino-5-methylpyridin-3-yl)-8-methoxy-4-morpholinoquinazolin-6-yl)-2-fluorophenyl)propane-1-sulfonamide]	
0.1 to 1	0.001 to 0.1	0.001 to 0.1	0.1 to 1		COc1cc(-c2cccc(NS(=O)(=O)CCCF)c2F)cc2c(N3CCOCC3)nc(-c3cnc(N)cc3C(F)(F)F)nc12 [Example 36, N-(3-(2-(6-amino-4-(trifluoromethyl)pyridin-3-yl)-8-methoxy-4-morpholinoquinazolin-6-yl)-2-fluorophenyl)-3-fluoropropane-1-sulfonamide]	1 to 10
0.1 to 1	0.001 to 0.1	0.001 to 0.1	0.1 to 1		COc1cc(-c2c(F)ccc(NS(=O)(=O)CCCF)c2F)cc2c(N3CCOCC3)nc(-c3cccc4[nH]ncc34)nc12 [Example 81, N-(3-(2-(1H-indazol-4-yl)-8-methoxy-4-morpholinoquinazolin-6-yl)-2,4-difluorophenyl)-3-fluoropropane-1-sulfonamide]	
0.001 to 0.1	0.001 to 0.1	0.1 to 1		0.1 to 1	Cc1nc(N)ncc1-c1nc(N2CCOC[C@@H]2C)c2nc(-c3cccc(NS(=O)(=O)c4cc(F)ccc4F)c3F)ccc2n1 [Example 132, (S)-N-(3-(2-(2-amino-4-methylpyrimidin-5-yl)-4-(3-methylmorpholino)pyrido[3,2-d]pyrimidin-6-yl)-2-fluorophenyl)-2,5-difluorobenzenesulfonamide]	

The remaining lines, values behind:

SMILES	IC50 [1] [µM]	IC50 [2] [µM]	IC50 [3] [µM]	IC50 [4] [µM]	IC50 [6] [µM]	IC50 [5] [µM]
COc1cc(-c2cccc(NS(=O)(=O)CCCF)c2F)cc2c(N3CCOCC3)nc(-c3cccc4[nH]ncc34)nc12 [Example 37, N-(3-(2-(1H-indazol-4-yl)-8-methoxy-4-morpholinoquinazolin-6-yl)-2-fluorophenyl)-3-fluoropropane-1-sulfonamide]	0.1 to 1	0.001 to 0.1	0.001 to 0.1	0.1 to 1		1 to 10
CNc1ccc(-c2nc(N3CCOCC3)c3cc(-c4cccc(NS(=O)(=O)CCCF)c4F)cc(OC)c3n2)cn1 [Example 50, 3-fluoro-N-(2-fluoro-3-(8-methoxy-2-(6-(methylamino)pyridin-3-yl)-4-morpholinoquinazolin-6-yl)phenyl)propane-1-sulfonamide]		0.001 to 0.1	0.001 to 0.1	0.001 to 0.1	0.001 to 0.1	0.1 to 1
CNc1ncc(-c2nc(N3CCOCC3)c3cc(-c4cccc(NS(=O)(=O)CCCF)c4F)cc(OC)c3n2)cn1 [Example 51, 3-fluoro-N-(2-fluoro-3-(8-methoxy-2-(2-(methylamino)pyrimidin-5-yl)-4-morphoIinoquinazolin-6-yl)phenyl)propane-1-sulfonamide]		0.001 to 0.1	0.001 to 0.1	0.001 to 0.1	0.001 to 0.1	0.1 to 1
Nc1ccc(-c2nc(N3CCOCC3)c3cc(-c4cccc(NS(=O)(=O)CCCF)c4F)cc(OC4CCCC4)c3n2)cn1 [Example 53, N-(3-(2-(6-aminopyridin-3-yl)-8-(cyclopentyloxy)-4-morpholinoquinazolin-6-yl)-2-fluorophenyl)-3-fluoropropane-1-sulfonamide]		0.001 to 0.1	0.001 to 0.1	0.001 to 0.1	0.001 to 0.1	0.1 to 1
C[C@@H]1COCCN1c1nc(-c2ccc(N)nc2)nc2c(OC3CCCC3)cc(-c3cccc(NS(=O)(=O)CCCF)c3F)cc12 [Example 62, (R)-N-(3-(2-(6-aminopyridin-3-yl)-8-(cyclopentyloxy)-4-(3-methylmorpholino)quinazolin-6-yl)-2-fluorophenyl)-3-fluoropropane-1-sulfonamide]		0.001 to 0.1	0.001 to 0.1	0.001 to 0.1	0.001 to 0.1	0.1 to 1
O=S(=O)(CCCF)Nc1cccc(-c2ccc3nc(-c4cnc(NCCCO)nc4)nc(N4CCOCC4)c3n2)c1F [Example 110, 3-fluoro-N-(2-fluoro-3-(2-(2-((3-hydroxypropyl)amino)pyrimidin-5-yl)-4-morpholinopyrido[3,2-d]pyrimidin-6-yl)phenyl)propane-1-sulfonamide]	0.1 to 1	0.001 to 0.1	0.001 to 0.1	1 to 10		
CC(C)Nc1ccc(-c2nc(N3CCOCC3)c3nc(-c4cccc(NS(=O)(=O)CCCF)c4F)ccc3n2)cn1 [Example 114, 3-fluoro-N-(2-fluoro-3-(2-(6-(isopropylamino)pyridin-3-yl)-4-morpholinopyrido[3,2-d]pyrimidin-6-yl)phenyl)propane-1-sulfonamide]		0.001 to 0.1	0.001 to 0.1	0.1 to 1	0.1 to 1	0.1 to 1
Cc1cc(-c2cccc(NS(=O)(=O)CCCF)c2F)cc2c(N3CCOCC3)nc(-c3ccc(N)nc3)nc12 [Example 117, N-(3-(2-(6-aminopyridin-3-yl)-8-methyl-4-morpholinoquinazolin-6-yl)-2-fluorophenyl)-3-fluoropropane-1-sulfonamide]		0.001 to 0.1	0.001 to 0.1	0.1 to 1	0.001 to 0.1	1 to 10
Cc1cc(-c2cccc(NS(=O)(=O)CCCF)c2F)cc2c(N3CCOCC3)nc(-c3cccc4[nH]ncc34)nc12 [Example 118, N-(3-(2-(1H-indazol-4-yl)-8-methyl-4-morpholinoquinazolin-6-yl)-2-fluorophenyl)-3-fluoropropane-1-sulfonamide]		0.001 to 0.1		0.1 to 1	0.1 to 1	1 to 10
